Source: ChEMBL document CHEMBL1201862, “PubChem BioAssay data set” (2004)
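48-hour exposure; five concentrations; linearly interpolated endpoints. GI50 marks 50% less growth.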 Calls of active or inactive are those of the source. No stated cut-off is given here; in the data, active = GI50 up to about 1.1 µM and inactive = higher. Square brackets hold non-standard residues; d marks the D form. Peptide text beside a SMILES is read from it.

Experiments:
Experiment in all cases: NCI-60 cell line screen, 48 h
[1] = system: NCI/ADR-RES
[2] = system: DU-145
[3] = system: SK-MEL-5
[4] = system: COLO 205
[5] = system: CAKI-1
[6] = system: NCI-H23
[7] = system: BT-549
[8] = system: SK-MEL-28
[9] = system: HCC 2998
[10] = system: SW-620
[11] = system: MOLT-4
[12] = system: SK-OV-3
[13] = system: NCI-H226
[14] = system: SF-295
[15] = system: A498
[16] = system: HL-60
[17] = system: TK-10
[18] = system: RPMI-8226
[19] = system: T47D
[20] = system: Malme-3M

O=C1Nc2cccc(C(F)(F)F)c2/C1=N/Nc1ccccc1[N+](=O)[O-]
GI50 [1]: 30.8 µM (inactive) | GI50 [2]: 33 µM (inactive) | GI50 [3]: 21.4 µM (inactive) | GI50 [4]: 29.4 µM (inactive) | GI50 [5]: > 100 µM (inactive) | GI50 [6]: 22.1 µM (inactive) | GI50 [7]: > 100 µM (inactive) | GI50 [8]: 63.5 µM (inactive) | GI50 [9]: 28.7 µM (inactive) | GI50 [10]: 33 µM (inactive) | GI50 [11]: 28.6 µM (inactive) | GI50 [12]: 30.2 µM (inactive) | GI50 [13]: 23.1 µM (inactive) | GI50 [14]: 16.4 µM (inactive) | GI50 [15]: 0.836 µM (active) | GI50 [16]: 32.9 µM (inactive) | GI50 [17]: 14.8 µM (inactive) | GI50 [18]: 11.4 µM (inactive) | GI50 [19]: 56.6 µM (inactive)

COc1cc2c(cc1NC(=O)c1ccccc1)c1c(n2S(=O)(=O)c2ccccc2)CCN(S(=O)(=O)c2ccccc2)C1
GI50 [1]: > 100 µM (inactive) | GI50 [2]: > 100 µM (inactive) | GI50 [3]: > 100 µM (inactive) | GI50 [4]: > 100 µM (inactive) | GI50 [6]: > 100 µM (inactive) | GI50 [7]: > 100 µM (inactive) | GI50 [8]: > 100 µM (inactive) | GI50 [9]: > 100 µM (inactive) | GI50 [10]: > 100 µM (inactive) | GI50 [11]: > 100 µM (inactive) | GI50 [12]: > 100 µM (inactive) | GI50 [13]: > 100 µM (inactive) | GI50 [15]: > 100 µM (inactive) | GI50 [16]: > 100 µM (inactive) | GI50 [18]: > 100 µM (inactive) | GI50 [19]: 22.1 µM (inactive)

CNN1C(=O)c2c(N)c(C#N)c(-c3ccccc3)c(-c3ccccc3)c2C1=O
GI50 [1]: 82.2 µM (inactive) | GI50 [2]: > 100 µM (inactive) | GI50 [3]: 62.4 µM (inactive) | GI50 [4]: > 100 µM (inactive) | GI50 [5]: > 100 µM (inactive) | GI50 [7]: > 100 µM (inactive) | GI50 [8]: > 100 µM (inactive) | GI50 [9]: > 100 µM (inactive) | GI50 [10]: > 100 µM (inactive) | GI50 [11]: 39.5 µM (inactive) | GI50 [20]: > 100 µM (inactive) | GI50 [13]: > 100 µM (inactive) | GI50 [14]: 73.5 µM (inactive) | GI50 [15]: > 100 µM (inactive) | GI50 [16]: 30.5 µM (inactive) | GI50 [17]: > 100 µM (inactive) | GI50 [18]: 24.7 µM (inactive) | GI50 [19]: 17.9 µM (inactive)

COc1ccccc1N1C(=O)/C(=C\c2cc(OC)c(OC)c(OC)c2)S(=O)(=O)C1c1ccccc1 (configuration not stated)
GI50 [1]: 22.2 µM (inactive) | GI50 [2]: 62.1 µM (inactive) | GI50 [3]: 26.4 µM (inactive) | GI50 [4]: 26.9 µM (inactive) | GI50 [5]: 53.3 µM (inactive) | GI50 [6]: 33.9 µM (inactive) | GI50 [7]: 30.5 µM (inactive) | GI50 [8]: 27.4 µM (inactive) | GI50 [9]: 79.4 µM (inactive) | GI50 [10]: 30 µM (inactive) | GI50 [11]: 31.8 µM (inactive) | GI50 [12]: 20.6 µM (inactive) | GI50 [20]: 26.9 µM (inactive) | GI50 [13]: 44.8 µM (inactive) | GI50 [14]: 23.8 µM (inactive) | GI50 [15]: 48.2 µM (inactive) | GI50 [17]: > 100 µM (inactive) | GI50 [18]: 20.5 µM (inactive) | GI50 [19]: 29.6 µM (inactive)

COc1cc(OC)nc(-n2c(N)c(C#N)c3ccc([N+](=O)[O-])cc3c2=O)n1
GI50 [1]: > 100 µM (inactive) | GI50 [2]: > 100 µM (inactive) | GI50 [3]: > 100 µM (inactive) | GI50 [4]: > 100 µM (inactive) | GI50 [5]: > 100 µM (inactive) | GI50 [6]: > 100 µM (inactive) | GI50 [7]: > 100 µM (inactive) | GI50 [8]: > 100 µM (inactive) | GI50 [9]: > 100 µM (inactive) | GI50 [10]: > 100 µM (inactive) | GI50 [11]: > 100 µM (inactive) | GI50 [14]: > 100 µM (inactive) | GI50 [15]: > 100 µM (inactive) | GI50 [16]: > 100 µM (inactive) | GI50 [17]: > 100 µM (inactive) | GI50 [18]: > 100 µM (inactive) | GI50 [19]: > 100 µM (inactive)

N=C(N)NCCC[C@H]1NC(=O)[C@@H](CCC(=O)O)NC(=O)[C@@H](CC(=O)O)NC(=O)[C@@H](CCC(=O)O)NC(=O)[C@H](Cc2c[nH]c3ccccc23)NC1=O (cyclo(W[dE][dD][dE][dR]))
GI50 [1]: > 7.5 µM (inactive) | GI50 [2]: > 7.5 µM (inactive) | GI50 [3]: > 7.5 µM (inactive) | GI50 [4]: > 7.5 µM (inactive) | GI50 [5]: > 7.5 µM (inactive) | GI50 [6]: > 7.5 µM (inactive) | GI50 [7]: > 7.5 µM (inactive) | GI50 [9]: > 7.5 µM (inactive) | GI50 [10]: > 7.5 µM (inactive) | GI50 [11]: > 7.5 µM (inactive) | GI50 [12]: > 7.5 µM (inactive) | GI50 [13]: > 7.5 µM (inactive) | GI50 [14]: > 7.5 µM (inactive) | GI50 [15]: > 7.5 µM (inactive) | GI50 [16]: > 7.5 µM (inactive) | GI50 [17]: > 7.5 µM (inactive) | GI50 [18]: > 7.5 µM (inactive) | GI50 [19]: > 7.5 µM (inactive)
